The text below walks through data of article PMC3923439, “Anti-inflammatory properties of a novel peptide interleukin 1 receptor antagonist” (Journal of Neuroinflammation, 2014).

Positions of bridges follow the written chain, without caps; N, C: chain ends. Chains are numbered I, II in the order given. No end group written: not given here.

This data set can be described thus: Pharmacokinetics: plasma and CSF concentration by competitive ELISA. Type of data set: in vivo. As to conditions: rat, single s.c. 10 mg/kg, calculated. The protocol: Biotinylated Ilantide-t (Schafer-N) was administered to adult male Wistar rats subcutaneously (s.c.) at a dose of 10 mg/kg. Twenty minutes, sixty minutes, one hundred forty minutes, five hours and thirty hours after peptide administration, blood samples (approximately 300 μl) were collected from the orbital plexus under fentanyl/droperidol/midazolam anesthesia (0.002%/0.14%/0.014% wt/vol) (Department of Experimental Medicine, University of Copenhagen, Denmark) in ethylenediaminetetraacetic acid–coated tubes (BD, Plymouth, UK), and 50 to 110 U/ml aprotinin (Calbiochem, San Diego, CA, USA) was added immediately to the collected blood. The samples were subsequently centrifuged at 1,500 × g for 15 minutes. Cerebrospinal fluid (CSF) was collected from the cisterna magna 30 minutes after peptide administration as described previously. Plasma and CSF samples were stored at -80°C.
The concentrations of Ilantide-t in plasma and CSF samples were measured by performing a competitive ELISA on amino 96-well plates (Nunc). […] Color development was terminated by the addition of 2 M H2SO4 (100 μl/well), and absorbance was read at 450 nm on a Wallac Victor 1420 multilabel counter (PerkinElmer, Hvidovre, Denmark). Peptide concentrations in the samples were determined using a standard curve. […]

Turning to “I: SGRKSSKMQAKK-NH2 / II: SGRKSSKMQAK / III: SGRKSSKMQA / IV: SGRKSSKMQA (amide I:11-IV:C, I:12-II:C, II:11-III:C; C-terminus assumed) [Ilantide-t]”, the Plasma half-life result was “approximately 2 hours”.
